The results in this text go back to patent publication US20050192261A1, “Methods and reagents for the treatment of immunoinflammatory disorders” (priority 2003, published 2005).

In this experiment the test system is TNFα secretion in white blood cells from human buffy coat stimulated with phorbol 12-myristate 13-acetate and ionomycin. Nature of the experiment: TNFα secretion assay. To be noted: for inhibition at 0.5 µM / inhibition at 1 µM / inhibition at 2 µM / inhibition at 4 µM / inhibition at 8 µM / inhibition at 0.2 µM / inhibition at 13 µM / inhibition at 26 µM: Homo sapiens; for inhibition at 0.5 µM: read-out: % inhibition of TNFα secretion, Ibudilast 0.5 μM; for inhibition at 1 µM: read-out: % inhibition of TNFα secretion, Ibudilast 1 μM; for inhibition at 2 µM: read-out: % inhibition of TNFα secretion, Ibudilast 2 μM; for inhibition at 4 µM: read-out: % inhibition of TNFα secretion, Ibudilast 4 μM; for inhibition at 8 µM: read-out: % inhibition of TNFα secretion, Ibudilast 8 μM; for inhibition at 0.2 µM: read-out: percent inhibition of TNFα secretion, Loratadine 0.2 μM; for inhibition at 13 µM: read-out: percent inhibition of TNFα secretion, Loratadine 13 μM; for inhibition at 26 µM: read-out: percent inhibition of TNFα secretion, Loratadine 26 μM; for percent inhibition of TNFα secretion: Bromodiphenhydramine HCl μM: 0/0.21/0.43/0.85/1.7/3.4/6.8/14/27.

The mark [1] stands for this setting: Bromodiphenhydramine HCl μM r5-r13: 0,0.21,0.43,0.85,1.7,3.4,6.8,14,27.
The mark [2] stands for this setting: Cyproheptadine HCl μM r5-r12: 0,0.24,0.48,0.96,1.9,3.9,7.7,15.
The mark [3] stands for this setting: Loratadine μM r5-r13: 0,0.2,0.41,0.82,1.6,3.3,6.5,13,26.
The mark [4] stands for this setting: Thiethylperazine Maleate μM r5-r13: 0,0.2,0.39,0.78,1.6,3.1,6.3,13,25.
[5] abbreviates: Desipramine HCl: 0/0.25/0.5/1/2/4/8/16/32 μM.
Setting [6] is: Fluoxetine HCl μM: 0/0.23/0.45/0.9/1.8/3.6/7.2/14/29.
Where [7] appears, read: Paroxetine HCl: 0/0.21/0.42/0.83/1.7/3.3/6.7/13/27 μM.

Where a name gives a salt, the structure may show the parent alone. Read-outs that look alike come from different tables or passages of the source.

Experimental: Drugs were added to the indicated concentration. […] The plate was then washed again with 0.1% Tween 20/PBS. An HRP-luminescent substrate was added to each well, and the light intensity of each well was measured using a plate luminometer.

As to `CN(C)CCOC(C)(c1ccccc1)c1ccccn1` (stereo not shown) [Doxylamine Succinate], the “inhibition of TNFα secretion” value (prednisolone 1 μM, doxylamine succinate r5-r13: 0,0.2,0.4,0.8,1.6,3.2,6.4,13,26 μM) is recorded as 34.

As for `CC(C)(C(=O)O)c1ccc(C(O)CCCN2CCC(C(O)(c3ccccc3)c3ccccc3)CC2)cc1` (stereo not shown) [Fexofenadine HCl], the “inhibition of TNFα secretion” value (prednisolone 0.5 μM, fexofenadine HCl r5-r13: 0,0.073,0.15,0.29,0.58,1.2,2.3,4.6,9.3 μM) worked out at 50.

One may read the inhibition as the drop in the measured response relative to a control, in per cent. Consider `CC(C)C(=O)c1c(C(C)C)nn2ccccc12` [Ibudilast], for which, under setting [1], the inhibition at 0.5 µM came to 19%, the inhibition at 1 µM amounted to 24%, the inhibition at 2 µM stood at 36% and the inhibition at 4 µM came out at 43%. Under setting [1], the inhibition at 8 µM was 41%. Moreover, under setting [2], the inhibition at 0.5 µM turned out to be 20%, the inhibition at 1 µM came to 23%, the inhibition at 2 µM came out at 32% and the inhibition at 4 µM is 36%. The inhibition at 8 µM under setting [2] was found to be 41%. Also, under setting [3], the inhibition at 0.5 µM came out at 21%, the inhibition at 1 µM is 32%, the inhibition at 2 µM was 35% and the inhibition at 4 µM stood at 39%. The inhibition at 8 µM under setting [3] worked out at 43%. Besides, under setting [4], the inhibition at 0.5 µM was 23%, the inhibition at 1 µM is 27%, the inhibition at 2 µM came out at 38% and the inhibition at 4 µM came to 42%. Besides, under setting [4], the inhibition at 8 µM stood at 48%.

`CCOC(=O)N1CCC(=C2c3ccc(Cl)cc3CCc3cccnc32)CC1` [Loratadine, loratadine]: the inhibition at 0.2 µM is, setting by setting: under setting [5], -1.95%; under setting [6], 3.68%; under setting [7], -1.38%. The inhibition at 13 µM was 31.7% under setting [5], 42.9% under setting [6] and 38.3% under setting [7]. The inhibition at 26 µM under setting [5] amounted to 41.5%, the inhibition at 26 µM under setting [6] came out at 56.6% and the inhibition at 26 µM under setting [7] is 43.4%.

`CNCCC=C1c2ccccc2CCc2ccccc21.Cl` [Nortryptyline HCl]: the “percent inhibition of TNFα secretion” value (Nortryptyline HCl 1 μM) worked out at 1.7, the “percent inhibition of TNFα secretion” value (Nortryptyline HCl 17 μM) is listed as 80 and the “percent inhibition of TNFα secretion” value (Nortryptyline HCl 33 μM) was 92.
